Test results reported in patent US9371328B2, “Imidazopyridazinecarbonitriles useful as kinase inhibitors” (BRISTOL-MYERS SQUIBB COMPANY, priority 2008, dated 2016).
pIC50: −log10 of the molar value.

Assays:
HCT116 = experiment: Cell proliferation inhibition assay (MTT/MTS); type: cell-based; conditions: Homo sapiens, HCT-116, Table 1, 72 h with compound
Protocol: Compounds were evaluated for their ability to inhibit cell proliferation, using an assay that measures mitochondrial metabolic activity, that is directly correlated with cell numbers. Cells were plated at 2000 cells/well in 96-well plates and were cultured for 24 h in RPMI-1640 supplemented with 2% fetal bovine serum, before test compounds were added. Compounds were diluted in culture medium such that the final concentration of dimethyl sulfoxide never exceeded 1%. Following the addition of compounds, the cells were cultured for an additional 72 h before cell viability was determined by measuring the conversion of 3-(4,5-dimethylthiazol-2-yl)-2,5-diphenyltetrazolium bromide (MTT) dye using the CellTiter96 kit (Promega) or by measuring the conversion of [3-(4,5-dimethylthiazol-2-yl)-5-(3-carboxymethoxyphenyl)-2-(4-sulfophenyl)-2H-tetrazolium (MTS) dye using the CELLTITER 96® AQueous (Promega).

CK2A1 (CK2α/β) = biological target: T1, CK2A1 (CK2α/β) (Homo sapiens, UniProt P68400); experiment: CK2 kinase assay, CK2A1 (CK2α/β); type: biochemical; conditions: Table 1; read-out: CK2A1 (CK2α/β) (IC50)
T1 construct: made in house
T1 sequence (P68400 whole entry, species assumed): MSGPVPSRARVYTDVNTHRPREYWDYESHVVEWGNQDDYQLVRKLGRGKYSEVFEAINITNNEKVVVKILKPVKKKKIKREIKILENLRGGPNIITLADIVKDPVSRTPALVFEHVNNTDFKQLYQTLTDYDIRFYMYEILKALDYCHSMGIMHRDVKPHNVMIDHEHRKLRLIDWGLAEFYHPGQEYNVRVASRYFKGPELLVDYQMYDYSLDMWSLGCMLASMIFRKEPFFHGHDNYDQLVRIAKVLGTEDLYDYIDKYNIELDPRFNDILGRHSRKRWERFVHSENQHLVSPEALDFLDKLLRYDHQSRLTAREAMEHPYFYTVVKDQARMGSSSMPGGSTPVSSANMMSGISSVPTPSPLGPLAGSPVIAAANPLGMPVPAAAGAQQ
T1 sequence (P67870 whole entry partner, species assumed): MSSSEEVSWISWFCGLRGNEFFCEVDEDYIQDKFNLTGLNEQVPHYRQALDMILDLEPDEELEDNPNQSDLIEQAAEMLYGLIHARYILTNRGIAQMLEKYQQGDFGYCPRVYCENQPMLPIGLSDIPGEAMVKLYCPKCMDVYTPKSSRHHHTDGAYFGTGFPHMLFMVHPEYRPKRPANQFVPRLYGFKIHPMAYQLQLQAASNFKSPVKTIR
Protocol: (§1) The effectiveness of compounds of the present invention as inhibitors of protein kinases can be readily tested by assays known to those skilled in the art. For example, in vitro protein kinase assays may be conducted with a relevant purified protein kinase and an appropriate synthetic substrate to determine the inhibitory activity of the compounds. […] Reaction mixtures were incubated at 30° C. for 1 hour, and reaction products were captured by binding to phosphocellulose (P81) filter plates. Incorporation of radioactive phosphate into the peptide substrate was determined by liquid scintillation counting. The potency of compounds in inhibiting CK2 is expressed as IC50, defined as the concentrations of compounds required to inhibit the enzymatic activity by 50%.
(§2) The inhibitory activity of the instant compounds may also be measured by recombinant CK2 holoenzyme kinase assays. The assays were performed in U-bottom 384-well plates. The final assay volume was 30 μl prepared from 15 μl additions of enzyme and substrates (fluoresceinated peptide FL-RRRADDSDDDDD-NH2 and ATP) and test compounds in assay buffer (20 mM HEPES pH 7.4, 10 mM MgCl2, 100 mM NaCl, 0.015% Brij35 and 0.25 mM DTT). The reaction was initiated by the combination of bacterially expressed, CK2 α/β or CK2 α′/β holoenzyme with substrates and test compounds. The reaction was incubated at room temperature for 60 minutes and terminated by adding 30 μl of 35 mM EDTA to each sample. The reaction mixture was analyzed on the Caliper LABCHIP® 3000 (Caliper, Hopkinton, Mass.) by electrophoretic separation of the fluorescent substrate and phosphorylated product. Inhibition data were calculated by comparison to no enzyme control reactions for 100% inhibition and vehicle-only reactions for 0% inhibition. The final concentration of reagents in the CK2 α/β assay was 25 μM ATP, 1.5 μM FL-RRRADDSDDDDD-NH2, […] CK2 α/β holoenzyme, and 1.6% DMSO. The final concentration of reagents in the CK2 α′/β assay was 10 μM ATP, 1.5 μM FL-RRRADDSDDDDD-NH2, 100 pM CK2 α′/β holoenzyme, and 1.6% DMSO. Dose response curves were generated to determine the concentration required inhibiting 50% of kinase activity (IC50). Compounds were dissolved at 10 mM in dimethylsulfoxide (DMSO) and evaluated at eleven concentrations. IC50 values were derived by non-linear regression analysis.

CK2A2 (CK2α′/β) = biological target: T2, CK2A2 (CK2α′/β) (Homo sapiens, UniProt P19784); experiment: CK2 kinase assay, CK2A2 (CK2α′/β); type: biochemical; conditions: Table 1; read-out: CK2A2 (CK2α′/β) (IC50)
T2 construct: made in house
T2 sequence (P19784 whole entry, species assumed): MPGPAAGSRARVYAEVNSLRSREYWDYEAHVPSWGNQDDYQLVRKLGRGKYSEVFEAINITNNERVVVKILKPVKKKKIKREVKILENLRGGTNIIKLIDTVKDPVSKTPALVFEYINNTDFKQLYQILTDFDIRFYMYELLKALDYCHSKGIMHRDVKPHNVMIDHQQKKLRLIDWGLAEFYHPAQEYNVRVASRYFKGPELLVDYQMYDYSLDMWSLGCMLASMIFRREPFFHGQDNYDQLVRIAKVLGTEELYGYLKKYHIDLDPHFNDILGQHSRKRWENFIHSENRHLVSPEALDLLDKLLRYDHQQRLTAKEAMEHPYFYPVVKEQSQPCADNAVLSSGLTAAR
T2 sequence (P67870 whole entry partner, species assumed): as the sequence (P67870 whole entry partner, species assumed) above
Protocol: as §1, §2

| SMILES | pIC50 (HCT116) | pIC50 (CK2A1 (CK2α/β)) | pIC50 (CK2A2 (CK2α′/β)) |
| --- | --- | --- | --- |
| COc1ccc(-n2cncn2)cc1Nc1cc(NC2CC2)c2ncc(C#N)n2n1 [Example 160, 8-(Cyclopropylamino)-6-((2-methoxy-5-(1H-1,2,4-triazol-1-yl)phenyl)amino)imidazo [1,2-b]pyridazine-3-carbonitrile] | 7.35 | 7.71 | 8.34 |
| N#Cc1cnc2c(NC3CC3)cc(Nc3cc(-n4cncn4)ccc3OC(F)(F)F)nn12 [Example 167, 8-(Cyclopropylamino)-6-((5-(1H-1,2,4-triazol-1-yl)-2-(trifluoromethoxy)phenyl)amino)imidazo[1,2-b]pyridazine-3-carbonitrile] | < 6.00 | 6.99 | 7.90 |
| N#Cc1ccnc(Nc2cc(NC3CC3)c3ncc(C#N)n3n2)c1 [Example 168, 6-((4-Cyano-2-pyridinyl)amino)-8-(cyclopropylamino) imidazo[1,2-b]pyridazine-3-carbonitrile] | 6.89 | 7.92 | 8.31 |
| Cc1ccc(Nc2cc(Nc3ccccn3)c3ncc(C#N)n3n2)cc1C#N [Example 196, 6-((3-Cyano-4-methylphenyl)amino)-8-(2-pyridinylamino)imidazo[1,2-b]pyridazine-3-carbonitrile] | 7.19 | 7.91 | 8.47 |
| N#Cc1cnc2c(NC3CC3)cc(Nc3cccc(-c4cccnc4)c3)nn12 [Example 214, 8-(Cyclopropylamino)-6-((3-(3-pyridinyl)phenyl)amino) imidazo[1,2-b]pyridazine-3-carbonitrile] | < 5.00 | 6.22 | 6.92 |
| Cc1ccc(Nc2cc(NC3CC3)c3ncc(C#N)n3n2)cc1CC(=O)O [Example 224, (5-((3-Cyano-8-(cyclopropylamino)imidazo [1,2-b]pyridazin-6-yl)amino)-2-methylphenyl) acetic acid] | < 5.00 | 6.10 | 6.90 |
| Cc1cc(Cl)c(Nc2cc(NC3CC3)c3ncc(C#N)n3n2)cc1C#N [Example 225, 6-((2-Chloro-5-cyano-4-methylphenyl)amino)-8-(cyclopropylamino)imidazo [1,2-b]pyridazine-3-carbonitrile] | 7.46 | 8.09 | 8.96 |
| COc1ccc(C#N)cc1Nc1cc(N)c2ncc(C#N)n2n1 [Example 228, 8-Amino-6-((5-cyano-2-methoxyphenyl)amino) imidazo[1,2-b]pyridazine-3-carbonitrile] | 6.49 | 8.05 | 8.77 |
| Cc1cc(Cl)c(Nc2cc(Nc3ccccn3)c3ncc(C#N)n3n2)cc1C#N [Example 233, 6-((2-Chloro-5-cyano-4-methylphenyl)amino)-8-(2-pyridinylamino)imidazo[1,2-b]pyridazine-3-carbonitrile] | 6.89 | 8.15 | 8.64 |
| CCc1ccc(Nc2cc(NC3CC3)c3ncc(C#N)n3n2)cc1NS(C)(=O)=O [Example 235, N-(5-((3-Cyano-8-(cyclopropylamino)imidazo [1,2-b]pyridazin-6-yl)amino)-2-ethylphenyl) methanesulfonamide] | 6.36 | 7.60 | 8.19 |
| CCN(CC)c1ccc(Nc2cc(NC3CC3)c3ncc(C#N)n3n2)cc1 [Example 244, 8-(Cyclopropylamino)-6-((4-(diethylamino)phenyl)amino)imidazo[1,2-b]pyridazine-3-carbonitrile] | 5.95 | 6.99 | 7.64 |
